Marks after values point to notes of the source that are not given here.
Tests used:
MCF-7 cells = conditions: human
MCF-7 = conditions: MCF-7, 10 μM
NCI-H552 = test: NCI60 in vitro screen, Non-Small Cell Lung Cancer; type: cell-based, human
HL-60(TB) = test: NCI60 in vitro screen, Leukemia; type: cell-based, human
SW-620 = test: NCI60 in vitro screen, Colon Cancer; type: cell-based, human
HOP-92 = test: NCI60 in vitro screen, Non-Small Cell Lung Cancer; type: cell-based, human
SR = test: NCI60 in vitro screen, Leukemia; type: cell-based, human
A498 = test: NCI60 in vitro screen, Renal cancer; type: cell-based, human
786-0 = test: NCI60 in vitro screen, Renal cancer; type: cell-based, human
SF-268 = test: NCI60 in vitro screen, CNS Cancer; type: cell-based, human
NCI-H460 = test: NCI60 in vitro screen, Non-Small Cell Lung Cancer; type: cell-based, human
LOX IMV1 = test: NCI60 in vitro screen, Melanoma; type: cell-based, human
OVCAR-5 = test: NCI60 in vitro screen, Ovarian cancer; type: cell-based, human
NCI-H23 = test: NCI60 in vitro screen, Non-Small Cell Lung Cancer; type: cell-based, human
HOP-62 = test: NCI60 in vitro screen, Non-Small Cell Lung Cancer; type: cell-based, human
ACHN = test: NCI60 in vitro screen, Renal cancer; type: cell-based, human
MDA-MB-435 = test: NCI60 in vitro screen, Melanoma; type: cell-based, human
NCI-H226 = test: NCI60 in vitro screen, Non-Small Cell Lung Cancer; type: cell-based, human
BT-549 = test: NCI60 in vitro screen, Breast cancer; type: cell-based, human
SN12C = test: NCI60 in vitro screen, Renal cancer; type: cell-based, human
MALME-3M = test: NCI60 in vitro screen, Melanoma; type: cell-based, human
SF295 = test: NCI60 in vitro screen, CNS Cancer; type: cell-based, human
NCI/ADR-RES = test: NCI60 in vitro screen, Ovarian cancer; type: cell-based, human
K-562 = test: NCI60 in vitro screen, Leukemia; type: cell-based, human
A549/ATCC = test: NCI60 in vitro screen, Non-Small Cell Lung Cancer; type: cell-based, human
60 cancer cell lines = test: NCI 60 cell line screen, whole panel; type: cell-based, human
[1] = test system: MCF-7 human breast cancer cell line; test: Alamar Blue assay for antiproliferative effects; type: cell-based; conditions: Homo sapiens, MCF7, 72 h, MCF-7, 72 h, Alamar Blue; read-out: IC50 (μM), antiproliferative effects
HCT-116 = test: NCI60 in vitro screen, Colon Cancer; type: cell-based, human
SK-MEL-5 = test: NCI60 in vitro screen, Melanoma; type: cell-based, human
CCRF-CEM = test: NCI60 in vitro screen, Leukemia; type: cell-based, human
DU-145 = test: NCI60 in vitro screen, Prostate cancer; type: cell-based, human
MDA-MB-231/ATCC = test: NCI60 in vitro screen, Breast cancer; type: cell-based, human
MDA-MB-468 = test: NCI60 in vitro screen, Breast cancer; type: cell-based, human
in vitro = conditions: human
SF539 = test: NCI60 in vitro screen, CNS Cancer; type: cell-based, human
SK-MEL-2 = test: NCI60 in vitro screen, Melanoma; type: cell-based, human
IGROV1 = test: NCI60 in vitro screen, Ovarian cancer; type: cell-based, human

For `CC/C(=C(\c1ccccc1)c1ccc(OCCN(C)C(=O)CCC(=O)Oc2cc(/C=C\c3cc(OC)c(OC)c(OC)c3)ccc2OC)cc1)c1ccccc1` (mixture of isomers) [Compound 16a, N-{2-[4-((Z)-1,2-Diphenylbut-1-enyl)phenoxy]ethyl}-N-methylsuccinamic acid 2-methoxy-5-[(Z)-2-(3,4,5-trimethoxyphenyl)vinyl]phenyl ester], the “cytotoxicity (LDH assay)” value (MCF-7 cells) was 13.2%, the “Growth % (10^−5 M)” value (MCF-7) was 10.06% and the GI50 (NCI-H552; Homo sapiens, NCI-H552) was 19.7 nM. For the same compound, the “Growth % (10^−5 M)” value (NCI-H552; NCI-H552, 10 μM) was −30.85 ^e %, the “Growth % (10^−5 M)” value (HL-60(TB); 10 μM) was 28.19% and the GI50 (HL-60(TB); Homo sapiens) was 14.5 nM. The GI50 (SW-620; Homo sapiens, SW-620) was < 10 nM, the “Growth % (10^−5 M)” value (SW-620; SW-620, 10 μM) was 28.17% and the “Growth % (10^−5 M)” value (HOP-92; HOP-92, 10 μM) was 58.55%. For the same compound, the GI50 (HOP-92; Homo sapiens, HOP-92) was < 10 nM, the “Growth % (10^−5 M)” value (SR; 10 μM) was 29.68% and the GI50 (SR; Homo sapiens) was 18.9 nM. The “Growth % (10^−5 M)” value (A498; A498, 10 μM) was 29.47%, the GI50 (A498; Homo sapiens, A498) was 58.1 nM and the “Growth % (10^−5 M)” value (786-0; 786-0, 10 μM) was 11.54%. For the same compound, the GI50 (786-0; Homo sapiens, 786-0) was 185 nM, the GI50 (SF-268; Homo sapiens, SF-268) was 25.3 nM and the “Growth % (10^−5 M)” value (SF-268; SF-268, 10 μM) was 18.51%. For the same compound, the GI50 (NCI-H460; Homo sapiens, NCI-H460) was 29.9 nM, the “Growth % (10^−5 M)” value (NCI-H460; NCI-H460, 10 μM) was −6.77 ^e % and the GI50 (LOX IMV1; Homo sapiens, LOX IMV1) was 35.8 nM. The “Growth % (10^−5 M)” value (LOX IMV1; LOX IMV1, 10 μM) was 28.97%, the GI50 (OVCAR-5; Homo sapiens, OVCAR-5) was 89.4 nM and the “Growth % (10^−5 M)” value (OVCAR-5; OVCAR-5, 10 μM) was 34.65%. The GI50 (NCI-H23; Homo sapiens, NCI-H23) was 45.9 nM, the “Growth % (10^−5 M)” value (NCI-H23; NCI-H23, 10 μM) was 12.25% and the “Growth % (10^−5 M)” value (HOP-62; HOP-62, 10 μM) was 35.29%. For the same compound, the GI50 (HOP-62; Homo sapiens, HOP-62) was 49.2 nM, the “Growth % (10^−5 M)” value (ACHN; 10 μM) was 22.73% and the GI50 (ACHN; Homo sapiens) was 45.5 nM. The GI50 (MDA-MB-435; Homo sapiens, MDA-MB-435) was < 10 nM, the “Growth % (10^−5 M)” value (MDA-MB-435; MDA-MB-435, 10 μM) was −16.61 ^e % and the GI50 (NCI-H226; Homo sapiens, NCI-H226) was 47.1 nM. The “Growth % (10^−5 M)” value (NCI-H226; NCI-H226, 10 μM) was 11.59%, the “Growth % (10^−5 M)” value (BT-549; BT-549, 10 μM) was 7.07% and the GI50 (BT-549; Homo sapiens, BT-549) was 43.8 nM. The inhibition at 10 µM (BT-549; Homo sapiens, BT-549, one-dose, 10 μM, read-out: growth inhibition) was 94%, the “Growth % (10^−5 M)” value (SN12C; 10 μM) was 31.84% and the GI50 (SN12C; Homo sapiens) was 57.6 nM. The GI50 (MALME-3M; Homo sapiens, Malme-3M) was > 10000 nM, the “Growth % (10^−5 M)” value (MALME-3M; MALME-3M, 10 μM) was 74.86% and the GI50 (SF295; Homo sapiens, SF-295, SF295) was 20.8 nM. For the same compound, the inhibition at 10 µM (SF295; Homo sapiens, SF-295, one-dose, 10 μM, read-out: growth inhibition) was 94%, the “Growth % (10^−5 M)” value (SF295; SF295, 10 μM) was 6.21% and the “Growth % (10^−5 M)” value (NCI/ADR-RES; 10 μM) was −41.32 ^e %. The GI50 (NCI/ADR-RES; Homo sapiens) was 11.1 nM, the GI50 (K-562; Homo sapiens, K562, K-562) was < 10 nM and the “Growth % (10^−5 M)” value (K-562; K-562, 10 μM) was 41.7%. The “Growth % (10^−5 M)” value (A549/ATCC; 10 μM) was 18.56%, the GI50 (A549/ATCC; Homo sapiens) was 59 nM and the IC50 (60 cancer cell lines; Homo sapiens, 60 cell, read-out: GI50 (IC50) values for most of the 60 cancer cell lines) was 10 to 72 nM. The GI50 (60 cancer cell lines; Homo sapiens, 60 cell, NCI60 five-dose, read-out: MG-MID (μM), mean of GI50 values over all cell lines) was 1.62 µM, the inhibition at 10 µM (60 cancer cell lines; Homo sapiens, 60 cell, one-dose, 10 μM, read-out: growth inhibition in a further 10 cell lines) was 80 to 89% and the “MG% (10^−5 M), Mean Growth % over all cell lines” value (60 cancer cell lines; NCI60 one-dose, 10 μM) was 14.74%. The IC50 [1] was 0.09 µM, the “Growth % (10^−5 M)” value (HCT-116; HCT-116, 10 μM) was 1.61% and the GI50 (HCT-116; Homo sapiens, HCT-116) was 15.6 nM. For the same compound, the inhibition at 10 µM (HCT-116; Homo sapiens, HCT-116, one-dose, 10 μM, read-out: growth inhibition) was 98%, the GI50 (SK-MEL-5; Homo sapiens, SK-MEL-5) was 20.1 nM and the “Growth % (10^−5 M)” value (SK-MEL-5; SK-MEL-5, 10 μM) was −34.34 ^e %. For the same compound, the “Growth % (10^−5 M)” value (CCRF-CEM; 10 μM) was 20.38%, the GI50 (CCRF-CEM; Homo sapiens) was 39.4 nM and the “Growth % (10^−5 M)” value (DU-145; DU-145, 10 μM) was −36.33 ^e %. For the same compound, the GI50 (DU-145; Homo sapiens, DU-145) was 12.5 nM, the “Growth % (10^−5 M)” value (MDA-MB-231/ATCC; 10 μM) was 23.19% and the GI50 (MDA-MB-231/ATCC; Homo sapiens) was 28.6 nM. The GI50 (MDA-MB-468; Homo sapiens, MDA-MB-468) was 34.3 nM, the inhibition at 10 µM (MDA-MB-468; Homo sapiens, MDA-MB-468, one-dose, 10 μM, read-out: growth inhibition) was 99% and the “Growth % (10^−5 M)” value (MDA-MB-468; MDA-MB-468, 10 μM) was 0.68%. For the same compound, the CC50 (in vitro) was > 100000 nM, the GI50 (SF539; Homo sapiens, SF-539, SF539) was 21.3 nM and the “Growth % (10^−5 M)” value (SF539; SF539, 10 μM) was −7.31 ^e %. For the same compound, the GI50 (SK-MEL-2; Homo sapiens, SK-MEL-2) was > 10000 nM, the “Growth % (10^−5 M)” value (SK-MEL-2; SK-MEL-2, 10 μM) was 37.97% and the GI50 (IGROV1; Homo sapiens, IGROV-1, IGROV1) was 47.3 nM. For the same compound, the “Growth % (10^−5 M)” value (IGROV1; IGROV1, 10 μM) was −26.34 ^e %.

Source: paper PMC6151695, “Novel Selective Estrogen Receptor Ligand Conjugates Incorporating Endoxifen-Combretastatin and Cyclofenil-Combretastatin Hybrid Scaffolds: Synthesis and Biochemical Evaluation” (Molecules : A Journal of Synthetic Chemistry and Natural …, 2017)
